Experimental data reported in patent publication US9399653B2, “Methods and systems for preparing irreversible inhibitors of protein tyrosine phosphatases” (The Governors of the University of Alberta, priority 2010, dated 2016).
Values joined by “and” are separate entries in the source; they are usually repeats but may differ in a detail not shown here. Identical values can stand only once.

What was measured:
[1] = target: T1, human CD45-cytoplasmic domain (Homo sapiens, UniProt P08575); assay: Phosphatase enzyme inhibition, CD45, fluorogenic substrate DiFMUP; format: biochemical; settings: for inhibition of CD45 (in words): DiFMUP substrate
T1 construct: human CD45-cytoplasmic domain (Enzo Life Science); purchased Enzo Life Science
T1 sequence (P08575 599-1306 limits assumed): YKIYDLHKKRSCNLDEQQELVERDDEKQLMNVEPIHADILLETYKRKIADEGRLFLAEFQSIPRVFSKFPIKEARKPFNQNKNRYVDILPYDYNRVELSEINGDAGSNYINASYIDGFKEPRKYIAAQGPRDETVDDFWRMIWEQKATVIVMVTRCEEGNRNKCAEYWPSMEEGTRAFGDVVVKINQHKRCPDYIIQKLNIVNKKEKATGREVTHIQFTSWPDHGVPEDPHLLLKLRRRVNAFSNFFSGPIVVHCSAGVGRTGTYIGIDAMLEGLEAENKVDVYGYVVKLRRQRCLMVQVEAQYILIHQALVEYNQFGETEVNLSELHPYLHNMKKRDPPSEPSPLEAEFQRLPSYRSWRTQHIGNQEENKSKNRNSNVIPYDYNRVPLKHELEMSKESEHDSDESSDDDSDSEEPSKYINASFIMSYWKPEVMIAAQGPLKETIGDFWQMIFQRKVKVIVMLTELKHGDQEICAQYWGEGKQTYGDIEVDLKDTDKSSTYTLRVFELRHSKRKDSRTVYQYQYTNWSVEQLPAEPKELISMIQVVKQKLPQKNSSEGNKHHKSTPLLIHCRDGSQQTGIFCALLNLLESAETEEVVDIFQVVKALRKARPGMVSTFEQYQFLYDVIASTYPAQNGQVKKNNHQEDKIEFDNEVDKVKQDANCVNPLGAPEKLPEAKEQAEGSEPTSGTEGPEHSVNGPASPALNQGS
Procedure: Enzyme assays were conducted using human CD45-cytoplasmic domain (Enzo Life Science; diluted to 4 mU/μL in 50 mM HEPES, pH 7.2, 1 mM EDTA, and 0.1% nonidet P-40) (FIG. 6-8), or bovine alkaline phosphatase (New England Bio Labs; diluted to 4 mU/μL in 100 mM NaCl, 50 mM tris-HCl, 10 mM MgCl2 1 mM dithiothreitol, pH 7.9) (FIG. 2-5). Enzyme activity was detected with a fluorogenic substrate (6,8-difluoro-4-methylumbelliferyl phosphate; DiFMUP) (Invitrogen). Assays were performed in black 96-well plates and read in a Spectra Max M2 plate reader (Molecular Devices). For CD45 assays, substrate concentration was between 1 μM to 50 μM, for alkaline phosphatase substrate concentration was between 10 nM to 10 μM. Stock solutions of inhibitors (100 mM of compound 7 in deionized water; and 10 mM of compound 17 in 50% deionized water and 50% DMSO) were prepared and stored at −20° C. Final solutions in microplate wells contained a total volume of 100 μL consisting of 2 μL of diluted enzyme, inhibitor, and DiFMUP substrate diluted to 100 μL in the appropriate buffer. All wells were incubated for 10 min at 37° C. in the plate reader prior to the addition of DiFMUP. After incubation, substrate was added and the plate was read at an excitation maximum of 358 nm and an emission maximum of 450 nm every 30 seconds for 125 min (CD45) or 65 min (alkaline phosphatase).
The Km for DiFMUP with each enzyme was first determined, and the experiment was then repeated in the presence of the inhibitor at a concentration close to an initially estimated K, (TABLE 1). […] Previous reports of PTP inhibition using BBP analogs observed irreversible inhibition of the enzyme.(22) Evaluation of the kinetic data described above using reciprocal plots (FIG. 9-12) was not consistent with pure competitive inhibition of CD45, but this analysis is not conclusive on its own.
(§1) The Kitz-Wilson analysis estimated the rate of irreversible inhibition (k3) of CD45 at 0.05 min^−1 for both compounds. To provide additional support for the expected mechanism of inhibition, we measured CD45 activity for an enzyme sample which was pre-incubated with the inhibitor and compared it to an enzyme sample that was only incubated with the inhibitor for a short period.

[2] = target: T2, CD45 (Homo sapiens, UniProt P08575); assay: Time-dependent inhibition of CD45 (pre-incubation with inhibitor); format: biochemical; settings: compound at 25 μM, enzyme incubated 13 h (FIG. 13)
T2 construct: Enzyme assays were conducted using human CD45-cytoplasmic domain (Enzo Life Science); purchased Enzo Life Science
T2 sequence (P08575 599-1306 limits assumed): T1 sequence (P08575 599-1306 limits assumed)
Procedure: FIG. 13 is a plot of time-dependent inhibition of CD45 enzyme activity in the presence of compound 1 at a concentration of 25 μM. The enzyme was incubated for 13 h, either alone or in the presence of compound 1.
Time-Dependent Inhibition of CD45 by Compound 1
as §1

Molecule	inhibition of CD45 (in words) [1]	KI ([1]; Kitz-Wilson analysis)	Ki ([1]; Kitz-Wilson analysis) [µM]	k3, rate of enzyme inactivation ([1]; Kitz-Wilson analysis)	potency relative to BrPmp alone ([1]; from Kitz-Wilson KI values (Example 8))	potency relative to BrPmp alone ([1]; initial kinetic data (Example 7))	CD45 activity after pre-incubation with inhibitor [2]
O=P(O)(O)C(Br)c1ccccc1 (centres unmarked) [compound 7, [bromo(phenyl)methyl]phosphonic acid, reference compound]	failure to alter the rate of reaction	did not give a saturating curve					
CC(C)C[C@H](NC(=O)[C@H](Cc1ccc(C(Br)P(=O)(O)O)cc1)NC(=O)[C@@H](N)CC(=O)O)C(=O)O (some centres unmarked) [compound 17, Asp-BrPmp-Leu]	significant inhibition of the enzyme at low micromolar concentrations		16 ± 4	0.05 min⁻¹ and 0.048 ± 0.003 min⁻¹	approximately 4 fold	approximately 7 fold	
L-BrPmp-OH [compound 1]							at long incubation times completely inactivated the enzyme
